The source of these data is article PMC9626498 (Scientific Reports, 2022).

Each structure is given as a SMILES string.

The target in assay [1] is acetylcholinesterase (AChE) (Electrophorus electricus, UniProt O42275). Kind of assay: modified Ellman spectrophotometric assay. In kind it is biochemical. Background: Ellman's reagent forms a yellow product with free thiols.
Assay [2] deals with butyrylcholinesterase (BChE) (Equus caballus, UniProt P81908). Kind of assay: modified Ellman spectrophotometric assay. It is filed as biochemical.
Sequence of butyrylcholinesterase (BChE) (P81908 whole entry): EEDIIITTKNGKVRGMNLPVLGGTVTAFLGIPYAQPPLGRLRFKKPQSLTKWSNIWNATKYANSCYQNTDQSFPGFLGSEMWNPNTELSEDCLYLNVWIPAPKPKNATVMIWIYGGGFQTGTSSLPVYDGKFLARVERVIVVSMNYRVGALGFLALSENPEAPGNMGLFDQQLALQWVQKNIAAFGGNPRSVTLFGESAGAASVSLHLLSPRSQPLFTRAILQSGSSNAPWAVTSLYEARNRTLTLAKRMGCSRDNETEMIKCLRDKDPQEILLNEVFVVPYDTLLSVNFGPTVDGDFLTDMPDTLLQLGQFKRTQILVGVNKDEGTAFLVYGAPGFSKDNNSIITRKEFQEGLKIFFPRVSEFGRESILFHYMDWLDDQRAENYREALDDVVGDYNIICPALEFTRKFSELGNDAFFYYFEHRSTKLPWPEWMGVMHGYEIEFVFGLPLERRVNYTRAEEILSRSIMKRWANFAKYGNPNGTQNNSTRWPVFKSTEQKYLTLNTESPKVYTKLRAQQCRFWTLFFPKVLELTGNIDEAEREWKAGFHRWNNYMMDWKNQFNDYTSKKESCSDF

Sequence of acetylcholinesterase (AChE) (O42275 24-633): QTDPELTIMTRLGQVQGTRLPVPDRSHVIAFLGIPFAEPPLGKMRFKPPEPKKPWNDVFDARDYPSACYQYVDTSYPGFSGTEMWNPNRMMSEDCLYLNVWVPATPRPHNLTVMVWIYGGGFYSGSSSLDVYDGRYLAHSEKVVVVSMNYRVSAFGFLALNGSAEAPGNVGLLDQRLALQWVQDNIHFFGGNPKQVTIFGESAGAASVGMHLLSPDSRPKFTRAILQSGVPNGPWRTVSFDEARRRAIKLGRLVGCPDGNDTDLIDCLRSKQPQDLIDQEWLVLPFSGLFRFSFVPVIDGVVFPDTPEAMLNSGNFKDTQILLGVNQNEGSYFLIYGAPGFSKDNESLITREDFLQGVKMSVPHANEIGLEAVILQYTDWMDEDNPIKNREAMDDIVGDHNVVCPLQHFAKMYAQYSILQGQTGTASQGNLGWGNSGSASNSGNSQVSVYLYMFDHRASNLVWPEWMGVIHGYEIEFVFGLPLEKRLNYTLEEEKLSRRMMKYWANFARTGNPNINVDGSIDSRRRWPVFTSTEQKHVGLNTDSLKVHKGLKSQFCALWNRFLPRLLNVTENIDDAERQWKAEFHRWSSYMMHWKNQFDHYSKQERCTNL

In the case of `C[C@@H]1O[C@@H](O[C@H]2C(=O)c3c(O)cc(O)cc3O[C@@H]2c2cc(O)c(O)c(O)c2)[C@H](O)[C@H](O)[C@H]1O` [compound 1, dihydromyricetin 3-O-rhamnoside], the IC50 in assay [1] amounted to 70 ± 8 µM; in assay [2] it was 71 ± 4 µM.

By IC50 is commonly meant the midpoint of a concentration-inhibition curve.
